Source: patent US10544143B2, “4-azaindole compounds” (BRISTOL-MYERS SQUIBB COMPANY, priority 2017, dated 2020)
Like-named read-outs stand apart in the source and are kept apart here.

What was measured:
human TLR7 = human TLR7 (Homo sapiens (Human), UniProt Q9NYK1); assay: TLR7 inhibition reporter assay (HEK-Blue SEAP); type: cell-based
human TLR8 = human TLR8 (Homo sapiens (Human), UniProt Q9NR97); assay: TLR8 inhibition reporter assay (HEK-Blue SEAP); conditions: read-out: TLR8 IC50;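 note: SEAP driven by IFN-β minimal promoter carrying NF-κB and AP-1 sites, compounds dosed 0.05 nM to 50 µM for 22 h, inhibition scaled between agonist-plus-DMSO and reference-inhibitor wells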
human TLR9 = human TLR9 (Homo sapiens (Human), UniProt Q9NR96); assay: TLR9 inhibition reporter assay (HEK-Blue SEAP); conditions: read-out: TLR9 IC50;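 note: SEAP driven by an IFN-β minimal promoter with NF-κB and AP-1 sites, read after 22 h, compounds dosed 0.05 nM–50 µM, inhibition scaled between agonist plus DMSO and reference-inhibitor wells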
[1] = HEK-Blue cells overexpressing human TLR7, SEAP reporter, gardiquimod 7.5 μM
[2] = HEK-Blue cells overexpressing human TLR8, SEAP reporter, R848 15.9 μM
[3] = HEK-Blue cells overexpressing human TLR9, SEAP reporter, ODN2006 5 nM
[4] = HEK-Blue human TLR7 cells, gardiquimod 7.5 μM
[5] = HEK-Blue human TLR8 cells, R848 15.9 μM
[6] = HEK-Blue human TLR9 cells, ODN2006 5 nM
[7] = HEK-Blue cells overexpressing human TLR7, gardiquimod 7.5 μM stimulation, SEAP reporter
[8] = HEK-Blue cells overexpressing human TLR8, R848 15.9 μM stimulation, SEAP reporter
[9] = HEK-Blue cells overexpressing human TLR9, ODN2006 5 nM stimulation, SEAP reporter

human TLR7, sequence (Q9NYK1 27-1049): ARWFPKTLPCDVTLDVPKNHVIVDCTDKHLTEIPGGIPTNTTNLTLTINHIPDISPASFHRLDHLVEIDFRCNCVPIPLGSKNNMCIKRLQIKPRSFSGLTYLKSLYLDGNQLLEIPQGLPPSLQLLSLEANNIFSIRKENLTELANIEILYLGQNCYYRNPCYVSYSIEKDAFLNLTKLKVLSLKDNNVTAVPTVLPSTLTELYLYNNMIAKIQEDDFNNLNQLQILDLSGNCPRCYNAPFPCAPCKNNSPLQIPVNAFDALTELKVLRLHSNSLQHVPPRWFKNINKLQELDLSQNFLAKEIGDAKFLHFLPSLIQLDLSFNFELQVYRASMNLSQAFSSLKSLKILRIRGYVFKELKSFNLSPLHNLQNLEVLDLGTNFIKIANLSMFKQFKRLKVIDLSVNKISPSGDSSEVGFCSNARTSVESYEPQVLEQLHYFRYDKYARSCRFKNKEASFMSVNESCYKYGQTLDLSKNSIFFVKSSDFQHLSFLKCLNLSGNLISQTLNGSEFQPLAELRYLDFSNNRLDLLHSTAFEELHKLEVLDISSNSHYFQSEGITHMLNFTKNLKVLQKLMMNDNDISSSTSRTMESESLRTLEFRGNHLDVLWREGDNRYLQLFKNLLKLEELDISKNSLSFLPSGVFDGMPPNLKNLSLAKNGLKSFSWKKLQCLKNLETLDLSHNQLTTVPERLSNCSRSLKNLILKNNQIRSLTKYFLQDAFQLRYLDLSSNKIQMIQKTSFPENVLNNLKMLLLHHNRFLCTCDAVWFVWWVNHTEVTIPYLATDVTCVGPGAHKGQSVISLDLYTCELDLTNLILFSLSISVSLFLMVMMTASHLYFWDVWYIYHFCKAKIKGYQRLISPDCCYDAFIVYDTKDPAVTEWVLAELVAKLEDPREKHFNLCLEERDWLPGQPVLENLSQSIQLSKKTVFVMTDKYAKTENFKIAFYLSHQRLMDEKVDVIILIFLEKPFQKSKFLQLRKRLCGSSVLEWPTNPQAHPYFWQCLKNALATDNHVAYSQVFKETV
human TLR9, sequence (Q9NR96 26-1032): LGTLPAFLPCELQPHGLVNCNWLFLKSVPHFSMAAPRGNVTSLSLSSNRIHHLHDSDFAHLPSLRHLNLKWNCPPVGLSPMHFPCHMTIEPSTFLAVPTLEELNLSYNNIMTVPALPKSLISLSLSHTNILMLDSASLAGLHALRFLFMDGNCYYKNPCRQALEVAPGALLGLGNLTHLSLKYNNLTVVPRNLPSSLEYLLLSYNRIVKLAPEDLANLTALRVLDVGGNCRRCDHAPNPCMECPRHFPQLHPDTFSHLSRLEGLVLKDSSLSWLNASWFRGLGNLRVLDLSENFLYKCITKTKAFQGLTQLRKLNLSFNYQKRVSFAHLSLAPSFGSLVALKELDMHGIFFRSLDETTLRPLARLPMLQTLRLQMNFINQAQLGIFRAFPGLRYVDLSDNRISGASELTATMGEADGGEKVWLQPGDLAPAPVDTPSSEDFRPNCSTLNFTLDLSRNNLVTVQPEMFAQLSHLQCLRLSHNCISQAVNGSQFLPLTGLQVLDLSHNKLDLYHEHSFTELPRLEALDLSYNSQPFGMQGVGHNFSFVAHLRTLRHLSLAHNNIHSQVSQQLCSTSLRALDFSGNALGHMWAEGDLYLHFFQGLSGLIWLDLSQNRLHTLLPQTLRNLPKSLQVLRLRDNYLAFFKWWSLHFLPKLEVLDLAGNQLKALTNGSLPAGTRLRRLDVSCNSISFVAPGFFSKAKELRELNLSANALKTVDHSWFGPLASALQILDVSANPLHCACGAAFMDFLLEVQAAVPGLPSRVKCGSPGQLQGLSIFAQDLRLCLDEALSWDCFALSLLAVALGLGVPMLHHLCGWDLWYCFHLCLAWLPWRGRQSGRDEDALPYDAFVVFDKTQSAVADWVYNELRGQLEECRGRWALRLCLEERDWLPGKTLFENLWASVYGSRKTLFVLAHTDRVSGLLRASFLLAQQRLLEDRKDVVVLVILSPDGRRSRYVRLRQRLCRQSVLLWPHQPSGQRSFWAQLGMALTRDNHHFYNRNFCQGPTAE
human TLR8, sequence (Q9NR97 27-1041): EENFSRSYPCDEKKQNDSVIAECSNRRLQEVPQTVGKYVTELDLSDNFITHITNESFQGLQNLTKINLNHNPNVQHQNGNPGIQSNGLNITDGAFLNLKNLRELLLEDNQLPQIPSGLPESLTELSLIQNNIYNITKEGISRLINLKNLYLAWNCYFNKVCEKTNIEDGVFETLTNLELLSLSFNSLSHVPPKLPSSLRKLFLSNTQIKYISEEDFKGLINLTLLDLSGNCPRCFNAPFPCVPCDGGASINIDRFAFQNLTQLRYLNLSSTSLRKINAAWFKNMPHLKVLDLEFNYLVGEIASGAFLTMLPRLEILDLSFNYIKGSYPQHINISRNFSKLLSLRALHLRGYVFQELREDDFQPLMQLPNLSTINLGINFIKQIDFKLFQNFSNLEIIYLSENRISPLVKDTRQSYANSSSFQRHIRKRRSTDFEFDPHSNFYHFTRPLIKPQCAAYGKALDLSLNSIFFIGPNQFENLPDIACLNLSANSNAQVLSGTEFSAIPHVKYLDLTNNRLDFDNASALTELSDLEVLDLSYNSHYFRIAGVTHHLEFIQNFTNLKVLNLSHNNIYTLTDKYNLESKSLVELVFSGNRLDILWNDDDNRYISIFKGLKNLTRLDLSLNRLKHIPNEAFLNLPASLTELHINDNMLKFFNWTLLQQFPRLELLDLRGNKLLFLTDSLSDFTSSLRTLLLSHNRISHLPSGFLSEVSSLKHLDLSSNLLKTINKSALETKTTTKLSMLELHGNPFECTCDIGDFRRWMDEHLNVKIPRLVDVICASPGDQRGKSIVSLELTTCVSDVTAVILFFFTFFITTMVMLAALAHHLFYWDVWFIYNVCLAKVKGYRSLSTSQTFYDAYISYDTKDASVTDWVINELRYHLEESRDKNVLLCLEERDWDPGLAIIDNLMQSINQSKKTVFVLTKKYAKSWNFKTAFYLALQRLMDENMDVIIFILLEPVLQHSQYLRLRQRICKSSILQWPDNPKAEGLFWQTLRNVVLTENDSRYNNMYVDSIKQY

Row | Compound | IC50 (human TLR7; [1]) [nM] | IC50 (human TLR8; [2]) [nM] | IC50 (human TLR9; [3]) [nM] | IC50 (human TLR7; [7]) [nM] | IC50 (human TLR8; [8]) [nM] | IC50 (human TLR9; [9]) [nM] | further results
1 | Cc1cc(-c2[nH]c3ccc(C4CCN(C5COC5)CC4)nc3c2C(C)C)cn2ncnc12 [Example 534] | 1.2 | 8 | 4280 | – | – | – | –
2 | Cc1c(-c2[nH]c3ccc(N4CCN(C(=O)CN5CC6(COC6)C5)C[C@@H]4C)nc3c2C(C)C)cn2ncnc2c1C [Example 901] | – | – | – | – | – | – | IC50 (human TLR7; [4]): 0.72 nM; IC50 (human TLR8; [5]): 0.15 nM; IC50 (human TLR9; [6]): 13300 nM
3 | COc1cc(-c2[nH]c3cc(C)c(C4CCN(CC(=O)N(C)C)CC4)nc3c2C(C)C)cn2ncnc12 [Example 584] | 0.24 | 29 | 2010 | – | – | – | –
4 | COc1cc(-c2[nH]c3cc(C)c(C4CCN(C5CCOCC5)CC4)nc3c2C(C)C)cn2ncnc12 [Example 589] | 0.25 | 62 | 1060 | – | – | – | –
5 | Cc1c(-c2[nH]c3ccc(N4C[C@H](C)N(C(=O)CCN(C)C)C[C@@H]4C)nc3c2C(C)C)cn2ncnc2c1C [Example 789] | 3.2 | 3.7 | 13300 | – | – | – | –
6 | COc1cc(-c2[nH]c3ccc(C4CCC(NC5CCOCC5)C4)nc3c2C(C)C)cn2ncnc12 (stereo not drawn) [Example 727] | 3.6 | 3.2 | 3350 | – | – | – | –
7 | Cc1cc(-c2[nH]c3ccc(C4CCC(NC5COC5)CC4)nc3c2C(C)C)cn2ncnc12 (stereo not drawn) [Example 279] | – | – | – | 0.31 | 1.4 | 1820 | –
8 | Cc1c(-c2[nH]c3ccc(N4C[C@@H](C)N(C(=O)CN5CC6(COC6)C5)[C@H](C)C4)nc3c2C(C)C)cn2ncnc2c1C [Example 929] | – | – | – | – | – | – | IC50 (human TLR7; [4]): 2.6 nM; IC50 (human TLR8; [5]): 3.9 nM; IC50 (human TLR9; [6]): 5090 nM
9 | Cc1c(-c2[nH]c3ccc(N4CCN(CC(N)=O)C[C@@H]4C)nc3c2C(C)C)cn2ncnc2c1C [Example 809] | – | – | – | – | – | – | IC50 (human TLR7; [4]): 2.2 nM; IC50 (human TLR8; [5]): 3.1 nM; IC50 (human TLR9; [6]): 36000 nM
10 | CC(C)c1c(-c2cn(C)c3ncccc23)[nH]c2ccc(C3CCC(NCC4(S(C)(=O)=O)CC4)CC3)nc12 (stereo not drawn) [Example 236] | – | – | – | 3.9 | 2.8 | 376 | –
11 | Cc1cc(-c2[nH]c3ccc(C4CCN(CC(=O)N(C)C)CC4)nc3c2C(C)C)cn2ncnc12 [Example 533] | 0.5 | 3.3 | 1460 | – | – | – | –
12 | Cc1c(-c2[nH]c3ccc(C4CCC(N5CC(F)(F)C5)CC4)nc3c2C(C)C)cn2ncnc2c1C (stereo not drawn) [Example 374] | – | – | – | 36 | 187 | 21600 | –
13 | COc1ccc2[nH]c(-c3cc(OC)c4ncnn4c3)c(C(C)C)c2n1 [Example 601, 6-(3-isopropyl-5-methoxy-1H-pyrrolo[3,2-b]pyridin-2-yl)-8-methoxy-[1,2,4]triazolo[1,5-a] pyridine] | 46 | 46 | > 50000 | – | – | – | –
14 | COc1cc(-c2[nH]c3ccc(C4CCC(N5CC6(COC6)C5)CC4)nc3c2C(C)C)cn2ncnc12 (stereo not drawn) [Example 1037] | – | – | – | – | – | – | IC50 (human TLR7; [4]): 3.1 nM; IC50 (human TLR8; [5]): 6.2 nM; IC50 (human TLR9; [6]): 1610 nM
15 | COc1cc(-c2[nH]c3ccc(N4CCN(CCC(C)(C)C)CC4)nc3c2C(C)C)cn2ncnc12 [Example 114] | – | – | – | 4.7 | 1.8 | 7590 | –
16 | Cc1c(-c2[nH]c3ccc(N4CCN(C(=O)CNC(C)C)C[C@H]4C)nc3c2C(C)C)cn2ncnc2c1C [Example 837] | – | – | – | – | – | – | IC50 (human TLR7; [4]): 0.7 nM; IC50 (human TLR8; [5]): 1.6 nM; IC50 (human TLR9; [6]): 7820 nM
17 | CC(C)c1c(-c2cn(CC#N)c3ncccc23)[nH]c2ccc(C3CCC(NCC(=O)N(C)C)CC3)nc12 (stereo not drawn) [Example 276] | – | – | – | 8.9 | 9 | 309 | –
18 | CNC1CN(c2ccc3[nH]c(-c4cn5ncnc5c(C)c4C)c(C(C)C)c3n2)C1 [Example 20] | – | – | – | 2.7 | 1.3 | 614 | –
19 | Cc1c(-c2[nH]c3ccc(C4CCC(N5CC(C)(C)C5)CC4)nc3c2C(C)C)cn2ncnc2c1C (stereo not drawn) [Example 1040] | – | – | – | – | – | – | IC50 (human TLR7; [4]): 0.17 nM; IC50 (human TLR8; [5]): 0.66 nM; IC50 (human TLR9; [6]): 1110 nM
20 | Cc1c(-c2[nH]c3ccc(N4C[C@H](C)NC[C@@H]4C)nc3c2C(C)C)cn2ncnc2c1C [Example 991] | – | – | – | – | – | – | IC50 (human TLR7; [4]): 0.27 nM; IC50 (human TLR8; [5]): 0.32 nM; IC50 (human TLR9; [6]): 5990 nM
21 | COc1cc(-c2[nH]c3cc(C)c(C4CCC(N)CC4)nc3c2C(C)C)cn2ncnc12 (stereo not drawn) [Example 323] | – | – | – | 1.1 | 31 | 1360 | –
22 | Cc1c(-c2[nH]c3ccc(N4CCN(C(=O)CN(C)C5COC5)CC4)nc3c2C(C)C)cn2ncnc2c1C [Example 967] | – | – | – | – | – | – | IC50 (human TLR7; [4]): 7.9 nM; IC50 (human TLR8; [5]): 1.2 nM; IC50 (human TLR9; [6]): 38700 nM
23 | Cc1c(-c2[nH]c3ccc(N4CCN(C(=O)CN5CC6(COC6)C5)[C@H](C)C4)nc3c2C(C)C)cn2ncnc2c1C [Example 940] | – | – | – | – | – | – | IC50 (human TLR7; [4]): 1.7 nM; IC50 (human TLR8; [5]): 0.66 nM; IC50 (human TLR9; [6]): 8340 nM
24 | Cc1c(-c2[nH]c3ccc(CCC4CNC4)nc3c2C(C)C)cn2ncnc2c1C [Example 692] | 43 | 58 | 1530 | – | – | – | –

Row | Compound | IC50 (human TLR7; [1]) [nM] | IC50 (human TLR8; [2]) [nM] | IC50 (human TLR9; [3]) [nM] | IC50 (human TLR7; [7]) [nM] | IC50 (human TLR8; [8]) [nM] | IC50 (human TLR9; [9]) [nM] | further results
25 | Cc1c(-c2[nH]c3ccc(N4CCC(N(C)Cc5cn(C)nn5)CC4)nc3c2C(C)C)cn2ncnc2c1C [Example 68] | – | – | – | 1.4 | 0.79 | 6300 | –
26 | Cc1c(-c2[nH]c3ccc(N4C[C@@H](C)N(C(=O)CN(C)C)[C@H](C)C4)nc3c2C(C)C)cn2ncnc2c1C [Example 885] | – | – | – | – | – | – | IC50 (human TLR7; [4]): 1.6 nM; IC50 (human TLR8; [5]): 3.8 nM; IC50 (human TLR9; [6]): 7850 nM
27 | CNC(=O)CN(C)C1CCC(c2ccc3[nH]c(-c4cn5ncnc5c(C)c4C)c(C(C)C)c3n2)CC1 (stereo not drawn) [Example 403] | 7.7 | 44 | 4280 | – | – | – | –
28 | COc1cc(-c2[nH]c3ccc(C4CC(N(C)CC5(C)COC5)C4)nc3c2C(C)C)cn2ncnc12 (stereo not drawn) [Example 643] | 5.4 | 5.3 | 3170 | – | – | – | –
29 | COc1cc(-c2[nH]c3ccc(C4CCC(NC5CCOCC5)C4)nc3c2C(C)C)cn2ncnc12 (stereo not drawn) [Example 710] | 2 | 3.2 | 4660 | – | – | – | –
30 | COc1cc(-c2[nH]c3ccc(C4CC(N)C4)nc3c2C(C)C)cn2ncnc12 (stereo not drawn) [Example 620] | 0.73 | 2.4 | 223 | – | – | – | –
31 | COc1cc(-c2[nH]c3ccc(C4CN(CC(N)=O)C4)nc3c2C(C)C)cn2ncnc12 [Example 645] | 21 | 303 | 4090 | – | – | – | –
32 | Cc1c(-c2[nH]c3ccc(C4CCC(N(C)CC5(S(C)(=O)=O)CC5)CC4)nc3c2C(C)C)cn2ncnc2c1C (stereo not drawn) [Example 479] | 2.9 | 10 | 23700 | – | – | – | –
33 | CCn1cc(-c2[nH]c3ccc(C4CCC(NC5CCOCC5)CC4)nc3c2C(C)C)c2cccnc21 (stereo not drawn) [Example 292] | – | – | – | 99 | 127 | 1620 | –
34 | Cc1c(-c2[nH]c3ccc(C4CCC(N5CC6(CCOC6)C5)CC4)nc3c2C(C)C)cn2ncnc2c1C (stereo not drawn) [Example 1061] | – | – | – | – | – | – | IC50 (human TLR7; [4]): 2.7 nM; IC50 (human TLR8; [5]): 4.8 nM; IC50 (human TLR9; [6]): 3180 nM
35 | COc1cc(-c2[nH]c3ccc(C4CCC(N(C)C(C)C)CC4)nc3c2C(C)C)cn2ncnc12 (stereo not drawn) [Example 170] | – | – | – | 2 | 17 | 1410 | –
36 | Cc1c(-c2[nH]c3ccc(C4CCNCC4)nc3c2C(C)C)cn2ncnc2c1C [Example 521] | 0.62 | 1.3 | 238 | – | – | – | –
37 | COc1ncnc(OC)c1CN(C)C1CCN(c2ccc3[nH]c(-c4cn5ncnc5c(C)c4C)c(C(C)C)c3n2)CC1 [Example 61] | – | – | – | 4.4 | 1.8 | 2410 | –
38 | Cc1c(-c2[nH]c3ccc(N4CCN(C(=O)CCN(C)C)[C@@H](C)C4)nc3c2C(C)C)cn2ncnc2c1C [Example 790] | 0.42 | 0.85 | 8810 | – | – | – | –
39 | C#CCNC1CCC(c2ccc3[nH]c(-c4cn5ncnc5c(C)c4C)c(C(C)C)c3n2)CC1 (stereo not drawn) [Example 375] | – | – | – | 0.87 | 4.4 | 2720 | –
40 | Cc1cc2[nH]c(-c3cc(C)c4ncnn4c3)c(C(C)C)c2nc1C1CCN(CC(=O)N(C)C)CC1 [Example 581] | 0.3 | 79 | 4920 | – | – | – | –
41 | Cc1cc(-c2[nH]c3ccc(C4CCC(N5CC6(COC6)C5)CC4)nc3c2C(C)C)cc(C)n1 (stereo not drawn) [Example 286] | – | – | – | 5.2 | 9.2 | 1570 | –
42 | Cc1c(-c2[nH]c3ccc(C4CCC(NC5COC5)CC4)nc3c2C(C)C)cn2ncnc2c1C (stereo not drawn) [Example 350] | – | – | – | 0.72 | 1 | 1160 | –
43 | CNC1CCC(c2ccc3[nH]c(-c4cn(C)c5ncncc45)c(C(C)C)c3n2)CC1 (stereo not drawn) [Example 301] | – | – | – | 2 | 42 | 4090 | –
44 | Cc1c(-c2[nH]c3ccc(N4CCN(C(=O)CN)CC4)nc3c2C(C)C)cn2ncnc2c1C [Example 832] | – | – | – | – | – | – | IC50 (human TLR7; [4]): 4 nM; IC50 (human TLR8; [5]): 2.3 nM; IC50 (human TLR9; [6]): 16800 nM
45 | Cc1c(-c2[nH]c3ccc(C4CCC(NC5COC5)CC4)nc3c2C(C)C)cn2ncnc2c1C (stereo not drawn) [Example 351] | – | – | – | 2.3 | 4.3 | 1690 | –
46 | Cc1c(-c2[nH]c3ccc(N4C[C@H]5C[C@@H](C4)N5)nc3c2C(C)C)cn2ncnc2c1C [Example 985] | – | – | – | – | – | – | IC50 (human TLR7; [4]): 1.6 nM; IC50 (human TLR8; [5]): 1.1 nM; IC50 (human TLR9; [6]): 3900 nM
47 | COc1cc(-c2[nH]c3ccc(N4CCN(C(C)C)CC4)nc3c2C(C)C)cn2ncnc12 [Example 92] | – | – | – | 0.87 | 0.78 | 3990 | –
48 | COc1cc(-c2[nH]c3ccc(C4CCC(N5CC6(COC6)C5)CC4)nc3c2C(C)C)cn2ncnc12 (stereo not drawn) [Example 244] | – | – | – | 1.6 | 8.2 | 2350 | –
